Common to all, as to type: functional
One assay concerns PC-3. Kind of assay: Growth inhibition of Homo sapiens (human) PC3 cells at 10^-5 M after 48 hr by SRB assay. The note with it: PC-3, 48 h, read-out: GI. (The SRB assay estimates cell density from bound dye.)
A further assay concerns HOP-62. The assay can be described thus: Growth inhibition of Homo sapiens (human) HOP62 cells at 10^-5 M after 48 hr by SRB assay. Conditions: HOP-62, 48 h, read-out: GI.
For the next assay, the system named is MCF7. The assay can be described thus: Growth inhibition of Homo sapiens (human) MCF7 cells at 10^-5 M after 48 hr by SRB assay. The note with it: MCF7, 48 h, read-out: GI.
A further assay concerns Rattus norvegicus. Kind of assay: Anti-inflammatory activity in Rattus norvegicus Charles Foster albino (rat) assessed as inhibition of carrageenan-induced paw edema at 50 mg/kg, po administered 30 min prior to carrageenan-challenge measured up to 3 hr relative to control. The arrangement: scale not given: the % may be the effect or the level left.
The next assay has as its system SF-295. The assay can be described thus: Growth inhibition of Homo sapiens (human) SF295 cells at 10^-5 M after 48 hr by SRB assay. Conditions: SF-295, 48 h, read-out: GI.
The test system of another assay is A549. Kind of assay: Growth inhibition of Homo sapiens (human) A549 cells at 10^-5 M after 48 hr by SRB assay. Conditions: A549, 48 h, read-out: GI.
Another assay has as its system IGROV-1. The assay can be described thus: Growth inhibition of Homo sapiens (human) IGROV1 cells at 10^-5 M after 48 hr by SRB assay. The note with it: IGROV-1, 48 h, read-out: GI.

The structures appear in SMILES notation. Counter-ions that a name gives are not always drawn.

As to `O=C1c2ccccc2C(=O)c2c1ccc1nc(-c3cccc4ccccc34)[nH]c21`, the inhibition of growth at 10 µM in the assay with PC-3 was 71%; with HOP-62, 61%; in the assay on MCF7 it was 76%; in the assay with SF-295, 81%; in the assay on A549, 93%; with IGROV-1 it was 71%. For the same compound, the Activity with Rattus norvegicus turned out to be 14%.
As for `Cc1ccsc1-c1nc2ccc3c(c2[nH]1)C(=O)c1ccccc1C3=O`, the inhibition of growth at 10 µM in the assay with PC-3 is 16%; in the assay with HOP-62 it was 19%; in the assay with MCF7 it was 36%; in the assay with SF-295 it was 30%; in the assay with A549, 15%; in the assay with IGROV-1, 6%. For the same compound, in the assay with Rattus norvegicus, the Activity came out at 16%.
With `Cc1ccc(-c2nc3ccc4c(c3[nH]2)C(=O)c2ccccc2C4=O)s1`, the inhibition of growth at 10 µM came to 14% in the assay with PC-3; 6% in the assay with HOP-62; 47% in the assay on MCF7; 43% in the assay on SF-295; 35% with A549; 8% in the assay with IGROV-1. In addition, the Activity in the assay on Rattus norvegicus is 26%.
For `Cn1cccc1-c1nc2ccc3c(c2[nH]1)C(=O)c1ccccc1C3=O`, the inhibition of growth at 10 µM in the assay on PC-3 is 28%; with HOP-62, 11%; in the assay with MCF7, 72%; with SF-295, 52%; in the assay with A549, 31%; with IGROV-1, 27%. For the same compound, the Activity with Rattus norvegicus came to 34%.
With `O=C1c2ccccc2C(=O)c2c1ccc1nc(-c3ccc4ccccc4c3)[nH]c21`, the inhibition of growth at 10 µM in the assay on PC-3 is 15%; in the assay with HOP-62, 9%; in the assay on MCF7 it was 26%; in the assay on SF-295, 34%; in the assay on A549, 2%; in the assay with IGROV-1 it was 9%. In addition, the Activity in the assay on Rattus norvegicus worked out at 35%.
As for `O=C1c2ccccc2C(=O)c2c1ccc1nc(-c3c(O)ccc4ccccc34)[nH]c21`, the inhibition of growth at 10 µM in the assay with PC-3 amounted to 87%; with HOP-62, 78%; in the assay on MCF7, 61%; with SF-295, 92%; with A549, 97%; with IGROV-1, 82%. In addition, in the assay with Rattus norvegicus, the Activity was 22%.
As for `Cc1ccsc1-c1nc2cc3nc4ccccc4nc3cc2[nH]1`, the inhibition of growth at 10 µM was 12% in the assay on PC-3; 4% in the assay with HOP-62; 17% in the assay on MCF7; 28% with SF-295; 27% with A549; 30% in the assay on IGROV-1. Moreover, the Activity in the assay on Rattus norvegicus was determined as 38%.
For the compound `Cc1ccc(-c2nc3cc4nc5ccccc5nc4cc3[nH]2)s1`, the inhibition of growth at 10 µM with PC-3 turned out to be 29%; in the assay with HOP-62, 20%; in the assay with MCF7, 56%; with SF-295 it was 32%; with A549, 53%; in the assay on IGROV-1, 18%. In addition, in the assay with Rattus norvegicus, the Activity was determined as 10%.
As for `Cn1cccc1-c1nc2cc3nc4ccccc4nc3cc2[nH]1`, the inhibition of growth at 10 µM in the assay with PC-3 was determined as 43%; in the assay on HOP-62 it was 12%; with MCF7, 41%; with SF-295, 40%; with A549 it was 36%; in the assay on IGROV-1, 26%. Moreover, in the assay with Rattus norvegicus, the Activity was 14%.
As for `c1ccc2c(-c3nc4cc5nc6ccccc6nc5cc4[nH]3)cccc2c1`, the inhibition of growth at 10 µM in the assay on PC-3 amounted to 97%; in the assay on HOP-62, 98%; with MCF7, 88%; with SF-295, 100%; in the assay with A549, 97%; with IGROV-1 it was 92%. The Activity with Rattus norvegicus is on record as 19%.
`c1ccc2cc(-c3nc4cc5nc6ccccc6nc5cc4[nH]3)ccc2c1`: the inhibition of growth at 10 µM in the assay on PC-3 is 22%; with HOP-62, 9%; in the assay on MCF7, 29%; with SF-295, 20%; with A549, 26%; in the assay on IGROV-1 it was 19%. For the same compound, the Activity in the assay on Rattus norvegicus stood at 28%.
`Oc1ccc2ccccc2c1-c1nc2cc3nc4ccccc4nc3cc2[nH]1`: the inhibition of growth at 10 µM with PC-3 was 81%; with HOP-62 it was 90%; in the assay on MCF7, 84%; with SF-295, 97%; in the assay on A549, 87%; in the assay with IGROV-1 it was 84%. In addition, the Activity in the assay on Rattus norvegicus is recorded as 30%.
`Cc1ccsc1/C=N\C(=N)Nc1nc2ccccc2[nH]1`: the inhibition of growth at 10 µM in the assay with PC-3 came to 10%; in the assay on HOP-62 it was 13%; with MCF7, 9%; in the assay with SF-295, 40%; in the assay on A549, 3%; in the assay on IGROV-1 it was 17%. Further, in the assay with Rattus norvegicus, the Activity worked out at 38%.
In the case of `Cc1ccc(/C=N\C(=N)Nc2nc3ccccc3[nH]2)s1`, the inhibition of growth at 10 µM stood at 8% in the assay with PC-3; 14% in the assay with HOP-62; 0% with MCF7; 36% with SF-295; 13% in the assay on A549; 20% in the assay with IGROV-1. Also, the Activity in the assay on Rattus norvegicus was determined as 24%.
Take `Cn1cccc1/C=N/C(=N)Nc1nc2ccccc2[nH]1`: the inhibition of growth at 10 µM in the assay with PC-3 is 1%; with HOP-62, 28%; in the assay with MCF7 it was 24%; in the assay with SF-295, 40%; in the assay on A549, 12%; with IGROV-1, 23%. For the same compound, the Activity in the assay on Rattus norvegicus came out at 0%.
In the case of `N=C(/N=C/c1cccc2ccccc12)Nc1nc2ccccc2[nH]1`, the inhibition of growth at 10 µM was found to be 13% in the assay with PC-3; 26% in the assay with HOP-62; 25% with MCF7; 40% with SF-295; 9% in the assay on A549; 13% in the assay on IGROV-1. Besides, in the assay with Rattus norvegicus, the Activity is on record as 34%.
For the compound `N=C(/N=C\c1ccc2ccccc2c1)Nc1nc2ccccc2[nH]1`, the inhibition of growth at 10 µM was 10% in the assay with PC-3; 18% with HOP-62; 6% with MCF7; 42% in the assay with SF-295; 8% in the assay on A549; 26% in the assay on IGROV-1. Further, the Activity with Rattus norvegicus was determined as 26%.
Consider `N=C(/N=C/c1c(O)ccc2ccccc12)Nc1nc2ccccc2[nH]1`, for which the inhibition of growth at 10 µM in the assay with PC-3 amounted to 15%; with HOP-62, 9%; in the assay with MCF7, 4%; in the assay on SF-295 it was 34%; in the assay with A549, 2%; in the assay with IGROV-1 it was 23%. Further, the Activity in the assay with Rattus norvegicus amounted to 0%.
As to `COc1cccc2c1C(=O)c1c(O)c3c(c(O)c1C2=O)C[C@@](O)(C(=O)CO)C[C@@H]3O[C@H]1C[C@H](N)[C@H](O)[C@H](C)O1` [DOXORUBICIN HYDROCHLORIDE], the inhibition of growth at 10 µM with HOP-62 stood at 32%; in the assay with MCF7, 72%; in the assay with SF-295 it was 69%; in the assay on A549 it was 27%; with IGROV-1, 39%.
As for `CO[C@@]12[C@H](COC(N)=O)C3=C(C(=O)C(C)=C(N)C3=O)N1C[C@@H]1N[C@@H]12` [MITOMYCIN], the inhibition of growth at 10 µM was found to be 61% with PC-3, 43% in the assay on SF-295 and 47% in the assay with IGROV-1.
For `CC(=O)O[C@H]1C(=O)[C@@]2(C)[C@H]([C@H](OC(=O)c3ccccc3)[C@]3(O)C[C@H](OC(=O)[C@H](O)[C@@H](NC(=O)c4ccccc4)c4ccccc4)C(C)=C1C3(C)C)[C@]1(OC(C)=O)CO[C@@H]1C[C@@H]2O` [PACLITAXEL], the inhibition of growth at 10 µM with HOP-62 amounted to 37%; in the assay with A549, 54%; in the assay on IGROV-1, 37%.
